Data on one substance can be found in patent US20240408219A1, “BICYCLIC PEPTIDE LIGAND DRUG CONJUGATES” (priority 2021, published 2024).

The test system of the test is HT1080 xenograft. The experiment in a line: In vivo efficacy test in HT1080 xenograft in BALB/c nude mice (Example 1). Here is the method: [table] • Species: Mus Musculus • Strain: […] Shanghai LC Laboratory Animal Co., LTD. […] The tumor cells were routinely subcultured twice weekly by trypsin-EDTA treatment. The cells growing in an exponential growth phase were harvested and counted for tumor inoculation. […] The test article administration and the animal numbers in each group were shown in the experimental design table. […] All the procedures related to animal handling, care and the treatment in the study were performed according to the guidelines approved by the Institutional Animal Care and Use Committee (IACUC) of WuXi AppTec, following the guidance of the Association for Assessment and Accreditation of Laboratory Animal Care (AAALAC). At the time of routine monitoring, the animals were daily checked for any effects of tumor growth and treatments on normal behavior such as mobility, food and water consumption (by looking only), body weight gain/loss, eye/hair matting and any other abnormal effect as stated in the protocol. Death and observed clinical signs were recorded on the basis of the numbers of animals within each subset. The major endpoint was to see if the tumor growth could be delayed or mice could be cured. […] The tumor size was then used for calculations of T/C value. The T/C value (in percent) is an indication of antitumor effectiveness; T and C are the mean volumes of the treated and control groups, respectively, on a given day. TGI was calculated for each group using the formula: […] Ti is the average tumor volume of a treatment group on a given day, TO is the average tumor volume of the treatment group on the day of treatment start, Vi is the average tumor volume of the vehicle control group on the same day with Ti, and VO is the average tumor volume of the vehicle group on the day of treatment start. Summary statistics, including mean and the standard error of the mean (SEM), are provided for the tumor volume of each group at each time point. Statistical analysis of difference in tumor volume among the groups was conducted on the data obtained at the best therapeutic time point after the final dose. A one-way ANOVA was performed to compare tumor volume among groups, and when a significant F-statistics (a ratio of treatment variance to the error variance) was obtained, comparisons between groups were carried out with Games-Howell test. All data were analyzed using Prism.

“And” between values parts separate entries of the source, which are not always exact repeats. Identical values can stand only once. Numbered stars: 1 amine (or outer) side, 2 acyl side, 3 side chain; on linkers, the order of the positions; unused ones are H or OH. Bridge positions count the residues as written; N and C are the ends. Square brackets hold non-standard residues; d marks the D form. Ends that are not written are not given here. 1Nal = N[C@@H](Cc1cccc2ccccc12)C(=O)O; TBMB = c1c(C[*:1])cc(C[*:3])cc1C[*:2]; Tle = CC(C)(C)[C@H](N)C(=O)O; βAla = NCCC(=O)O; Sar = CNCC(=O)O

As usually defined, the T/C is the ratio of treated to control.

For the substance “BT17BDC70: Reference bicyclic peptide drug conjugate (Tet-MMAE); BICY comprises βAla-Sar10-A-(SEQ ID NO: 1) ([βAla][Sar][Sar][Sar][Sar][Sar][Sar][Sar][Sar][Sar][Sar]AC[dA]NE[1Nal][dA]CEDFYD[Tle]C-NH2; linker 13-19-26 via TBMB; also: Tet-MMAE conjugate)”, the “Antitumor activity (in words)” value by setting is: (0.1 mg/kg biw) “did not produce significant antitumor activity”; (0.3 mg/kg biw) “did not produce significant antitumor activity”; (over all doses tested) “did not produce significant antitumor activity”. Further, the “Tumor volume (mean ± SEM)” value reads like this: (0.1 mpk iv biw, day 0 after the start of treatment) 170 ± 21 mm^3; (0.1 mpk iv biw, day 2) 400 ± 45 mm^3; (0.1 mpk iv biw, day 4) 557 ± 23 mm^3; (0.1 mpk iv biw, day 7) 1017 ± 180 mm^3; (0.1 mpk iv biw, day 9) 1102 ± 295 mm^3; (0.1 mpk iv biw, day 11) 1133 ± 203 mm^3. Also, the “Tumor volume (mean ± SEM)” value by setting is: (0.1 mpk iv biw, day 14) 1315 mm^3 and 1315 ± 287 mm^3; (0.3 mpk iv biw, day 0 after the start of treatment) 170 ± 27 mm^3; (0.3 mpk iv biw, day 2) 371 ± 63 mm^3; (0.3 mpk iv biw, day 4) 501 ± 91 mm^3; (0.3 mpk iv biw, day 7) 703 ± 69 mm^3; (0.3 mpk iv biw, day 9) 695 ± 60 mm^3. Also, the “Tumor volume (mean ± SEM)” value (0.3 mpk iv biw, day 11) was 745 ± 60 mm^3; the “Tumor volume (mean ± SEM)” value (0.3 mpk iv biw, day 14) is 903 mm^3 and 903 ± 67 mm^3. For the same substance, the T/C amounted to 129.9% (0.1 mpk iv biw, day 14) and 89.2% (0.3 mpk iv biw, day 14). The TGI (0.1 mpk iv biw, day 14) is reported as −36.3% and the TGI (0.3 mpk iv biw, day 14) came to 12.8%.
